From patent publication US4026888A, “Certain derivatives of particular 3-thiolated cephalosporins” (priority 1976, dated 1977)
In brackets after ≈: the same amount, converted by molar mass.

Assays:
Water solubility = assay type: physicochemical; settings: in water at 23° C., read-out: Water solubility
Stability of solids = assay type: physicochemical; settings: solid, read-out: Loss of bioactivity on storage at elevated temperatures
E. coli A15119 = experiment: Oral PD50 in mice; assay type: in vivo; settings: Escherichia coli, A15119, po, 3.5 h, oral; mice treated at 1 and 3.5 hours post-challenge; read-out: PD50
Procedure: (§1) Comparative Oral PD50 Values of
(§2) BL-S640 Derivatives in Mice
(§3) *Mice were treated at 1 and 3.5 hours post-challenge.

K. pneumoniae A9977 [1] = experiment: Oral PD50 in mice; assay type: in vivo; settings: Klebsiella pneumoniae, A9977; oral; mice treated at 1 and 3.5 hours post-challenge; read-out: PD50
Procedure: as §1, §2, §3

P. mirabilis A9707 = experiment: Oral PD50 in mice; assay type: in vivo; settings: Proteus mirabilis, mice treated at 1 and 3.5 hours post-challenge
Procedure: as §1, §2, §3

S. pyogenes A9604 = experiment: Oral PD50 in mice; assay type: in vivo; settings: Streptococcus pyogenes, mice treated at 1 and 3.5 hours post-challenge
Procedure: as §1, §2, §3

P. mirabilis A9900 [2] = experiment: Oral PD50 in mice; assay type: in vivo; settings: oral, mice treated at 1 and 3.5 hours post-challenge
P. mirabilis A9900 [3] = experiment: IM PD50 in mice; assay type: in vivo; settings: Proteus mirabilis
From the text: Comparative IM PD50 Values of
as §2

Str. pneumoniae A9585 = experiment: Antibiotic activity in nutrient broth (MIC); assay type: cell-based; settings: Streptococcus pneumoniae, A9585, inoculum 10^-3 dilution of overnight broth culture; 45% AAB + 5% serum + 50% broth; derivatives adjusted for BL-S640 content
From the text: (§4) Antibiotic Activity In Nutrient Broth
(§5) * 45% AAB+ 5% serum+ 50% broth listed above.
(§6) ** Dilution of overnight broth culture.
(§7) Antibiotic Spectrum Nutrient Broth
(§8) * 45% AAB + 5% serum + 50% broth
(§9) Antibiotic Spectrum in Nutrient Broth
(§10) *45% AAB + 5% serum + 50% broth listed above.

Str. pyogenes A9604 = experiment: Antibiotic activity in nutrient broth (MIC); assay type: cell-based; settings: Streptococcus pyogenes, A9604, inoculum 10^-3; 45% AAB + 5% serum + 50% broth; derivatives adjusted for BL-S640 content; read-out: MIC
From the text: as §4, §5, §6, §7, §8, §9, §10

E. coli A9675 = experiment: Antibiotic activity in nutrient broth (MIC); assay type: cell-based; settings: Escherichia coli, A9675
From the text: as §4, §6, §7, §9

E. coli Juhl A15119 = experiment: Antibiotic activity in nutrient broth (MIC); assay type: cell-based; settings: Escherichia coli, JUHLA15119
From the text: as §4, §6, §7, §9

Ent. cloacae A9656 = experiment: Antibiotic activity in nutrient broth (MIC); assay type: cell-based; settings: Enterobacter cloacae, A9656, inoculum 10^-4; derivatives adjusted for BL-S640 content
From the text: as §4, §6, §7, §9

Ent. cloacae A9657 = experiment: Antibiotic activity in nutrient broth (MIC); assay type: cell-based; settings: Enterobacter cloacae, A9657, inoculum 10^-4; derivatives adjusted for BL-S640 content; read-out: MIC
From the text: as §4, §6, §7, §9

Ent. cloacae A9659 = experiment: Antibiotic activity in nutrient broth (MIC); assay type: cell-based; settings: Enterobacter cloacae, A9659
From the text: as §4, §6, §7, §9

K. pneumoniae A15130 = experiment: Antibiotic activity in nutrient broth (MIC); assay type: cell-based; settings: Klebsiella pneumoniae, A15130
From the text: as §4, §6, §7, §9

K. pneumoniae A9977 [4] = experiment: Antibiotic activity in nutrient broth (MIC); assay type: cell-based; settings: Klebsiella pneumoniae
From the text: as §4, §6, §7, §9

Pr. mirabilis A9900 = experiment: Antibiotic activity in nutrient broth (MIC); assay type: cell-based; settings: Proteus mirabilis, inoculum 10^-4, derivatives adjusted for BL-S640 content
From the text: as §4, §6, §7, §9

Pr. morganii A15153 = experiment: Antibiotic activity in nutrient broth (MIC); assay type: cell-based; settings: Morganella morganii, A15153
From the text: as §4, §6, §7, §9

Ps. aeruginosa A9843A = experiment: Antibiotic activity in nutrient broth (MIC); assay type: cell-based; settings: Pseudomonas aeruginosa
From the text: as §4, §6, §7, §9

S. aureus BX1633 A9606 = experiment: Antibiotic activity in nutrient broth (MIC); assay type: cell-based; settings: Staphylococcus aureus, derivatives adjusted for BL-S640 content
From the text: as §4, §6, §7, §9

[5] = tested on: S. aureus Meth-Res A15097; experiment: Antibiotic activity in nutrient broth (MIC); assay type: cell-based; settings: Staphylococcus aureus
From the text: as §4, §6, §7, §9

S. aureus Smith A9537 = experiment: Antibiotic activity in nutrient broth (MIC); assay type: cell-based; settings: Staphylococcus aureus, SMITHA9537, inoculum 10^-4, derivatives adjusted for BL-S640 content
From the text: as §4, §6, §7, §9

Sal. enteritidis A9531 = experiment: Antibiotic activity in nutrient broth (MIC); assay type: cell-based; settings: Salmonella enterica, ENTERITIDIS, inoculum 10^-4; derivatives adjusted for BL-S640 content; read-out: MIC
From the text: as §4, §6, §7, §9

Ser. marcescens A20019 = experiment: Antibiotic activity in nutrient broth (MIC); assay type: cell-based; settings: Serratia marcescens, A20019, inoculum 10^-4; derivatives adjusted for BL-S640 content
From the text: as §4, §6, §7, §9

## N[C@@H](C(=O)N[C@@H]1C(=O)N2C(C(=O)O)=C(CSc3c[nH]nn3)CS[C@H]12)c1ccc(O)cc1 [7-[D-α-amino-α-(p-hydroxyphenyl)acetamido]-3-(1,2,3-triazol-5-ylthiomethyl)-3-cephem-4-carboxylic acid propylene glycol solvate]
Water solubility
  solubility: ~10000 µg/mL
Stability of solids; 56° C., 1 month
  degraded at 720 h: < 10%
Stability of solids; 100° C., 24 hours
  degraded at 24 h: < 6%
Stability of solids; 100° C., 48 hours
  degraded at 48 h: < 12%

## CC1=C(C(=O)O)N2C(=O)[C@@H](NC(=O)[C@H](N)c3ccccc3)[C@H]2SC1 [Cephalexin, reference compound]
E. coli A15119
  ED50: 13 mg/kg
K. pneumoniae A9977 [1]
  ED50: 43 mg/kg
P. mirabilis A9707
  ED50: 50 mg/kg
S. pyogenes A9604
  ED50: 11 mg/kg
P. mirabilis A9900 [2]; Proteus mirabilis, A9900, po, 3.5 h, read-out: PD50
  ED50: 66 mg/kg
P. mirabilis A9900 [2]
  PD50: 55 mg./kg./treatment
P. mirabilis A9900 [3]
  ED50: 50 mg/kg

## CC(=O)OCC1=C(C(=O)O)N2C(=O)[C@@H](NC(=O)Cc3cccs3)[C@H]2SC1 [Cephalothin, reference compound]
Str. pneumoniae A9585
  MIC: 0.03 µg/mL
Str. pyogenes A9604
  MIC: 0.03 µg/mL
E. coli A9675
  MIC: 32 µg/mL (≈ 80.7 µM)
E. coli Juhl A15119
  MIC: 16 µg/mL (≈ 40.4 µM)
Ent. cloacae A9656
  MIC: > 125 µg/mL
Ent. cloacae A9657
  MIC: 8 µg/mL (≈ 20.2 µM)
Ent. cloacae A9659
  MIC: > 125 µg/mL
K. pneumoniae A15130
  MIC: 32 µg/mL (≈ 80.7 µM)
K. pneumoniae A9977 [4]
  MIC: 1 µg/mL (≈ 2.52 µM)
Pr. mirabilis A9900
  MIC: 1 µg/mL (≈ 2.52 µM)
Pr. morganii A15153
  MIC: > 125 µg/mL
Ps. aeruginosa A9843A
  MIC: > 125 µg/mL
S. aureus BX1633 A9606; BX1633A9606, inoculum 10^-2
  MIC: 0.25 µg/mL (≈ 0.631 µM)
S. aureus BX1633 A9606; BX1633A9606, inoculum 10^-3
  MIC: 0.13 µg/mL (≈ 0.328 µM)
[5]
  MIC: 1 to 16 µg/mL (≈ 2.52 to 40.4 µM)
S. aureus Smith A9537; + 50% serum
  MIC: 0.5 µg/mL
S. aureus Smith A9537; nutrient broth
  MIC: 0.13 µg/mL (≈ 0.328 µM)
Sal. enteritidis A9531
  MIC: 0.25 µg/mL (≈ 0.631 µM)
Ser. marcescens A20019
  MIC: > 125 µg/mL
